Measured values from patent US20250127788A1, “PHARMACEUTICAL COMPOSITION CONTAINING TRIAZINE DERIVATIVE” (Shionogi & Co., Ltd., priority 2021, published 2025).

Tested on: SARS-CoV-2
Test: microbe, parasite or virus in culture
Assay type: cell-based
[1] = Severe acute respiratory syndrome coronavirus 2, VeroE6/TMPRSS2
[2] = Severe acute respiratory syndrome coronavirus 2, VeroE6/TMPRSS2, Beta strain (TY8-612)
[3] = Severe acute respiratory syndrome coronavirus 2, VeroE6/TMPRSS2, Gamma strain (TY7-501)
[4] = Severe acute respiratory syndrome coronavirus 2, VeroE6/TMPRSS2, Gamma strain (TY7-503)

Cn1cnc(Cn2c(=O)[nH]/c(=N\c3cc4cn(C)nc4cc3Cl)n(Cc3cc(F)c(F)cc3F)c2=O)n1
EC50 [1]: 370 nM
EC50 [2]: 400 nM
EC50 (Severe acute respiratory syndrome coronavirus 2, VeroE6/TMPRSS2, Delta strain (TY11-927-P1)): 410 nM
EC50 [3]: 500 nM
EC50 [4]: 430 nM
EC50 (Severe acute respiratory syndrome coronavirus 2, VeroE6/TMPRSS2, Lambda strain (TY33-456)): 270 nM
EC50 (Severe acute respiratory syndrome coronavirus 2, VeroE6/TMPRSS2, Mu strain (TY26-717)): 430 nM
EC50 (Severe acute respiratory syndrome coronavirus 2, VeroE6/TMPRSS2, Theta strain (TY28-444)): 290 nM

Cc1cncc(-n2c(=O)nc(Nc3cc4cn(C)nc4cc3Cl)n(Cc3cc(F)c(F)c(F)c3)c2=O)c1
EC50 [1]: 120 nM
EC50 (Severe acute respiratory syndrome coronavirus 2, VeroE6/TMPRSS2, Alpha strain (QHN001)): 140 nM
EC50 (Severe acute respiratory syndrome coronavirus 2, VeroE6/TMPRSS2, Alpha strain (QHN002)): 130 nM
EC50 (Severe acute respiratory syndrome coronavirus 2, VeroE6/TMPRSS2, Alpha strain (QK002)): 160 nM
EC50 [2]: 160 nM
EC50 [3]: 220 nM
EC50 [4]: 150 nM
